# Experimental data reported in patent US20230075856A1, “CYCLIC SULFAMIDE COMPOUNDS FOR TREATMENT OF HBV” (Assembly Biosciences, Inc., priority 2018, published 2023).
# Tested on: HBV viral load production from HepAD38 cells
# Test: Viral production from HepAD38 cells: viral load in supernatant by qPCR of the HBV core sequence
# Assay type: cell-based
# Details: Hepatitis B virus, HePAD38, 120 h, 5 days incubation, qPCR of supernatant HBV DNA vs DMSO control, read-out: viral load lowering EC50 (Activity)
# Procedure, shortened: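 Viral load was measured by qPCR of the HBV core region in supernatant, quantified against DNA standards and compared with DMSO wells. Cells (50,000/well, tetracycline withdrawn, 2% FBS) received compound from 10 μM final for 5 days; EC50 from four-parameter nonlinear regression.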
row,SMILES,EC50 [nM]
1,CC(NC(=O)C1CC(C(=O)Nc2ccc(F)c(Cl)c2)N(C)S(=O)(=O)N1)c1csc(-c2ccccc2Cl)n1 (centres unmarked) [Compound 1029],100 to 10000
2,CC(NC(=O)C1CC(C(=O)Nc2ccc(F)c(Cl)c2)N(C)S(=O)(=O)N1)c1cnc(Cl)s1 (centres unmarked) [Compound 1030],< 50
3,Cc1nc(Cl)sc1CNC(=O)C1CC(C(=O)Nc2ccc(F)c(Cl)c2)N(C)S(=O)(=O)N1 (centres unmarked) [Compound 1031],< 50
4,CN1C(C(=O)Nc2ccc(F)c(Cl)c2)CC(C(=O)NC2CCN(Cc3cccnc3Br)CC2)NS1(=O)=O (centres unmarked) [Compound 1033],100 to 10000
5,CN1C(C(=O)Nc2ccc(F)c(Cl)c2)CC(C(=O)NC2CCN(c3ccnc(Br)c3)CC2)NS1(=O)=O (centres unmarked) [Compound 1036],< 50
6,CN1C(C(=O)Nc2ccc(F)c(Cl)c2)CC(C(=O)NC2CCN(c3ccnc(F)c3)CC2)NS1(=O)=O (centres unmarked) [Compound 1040],< 50
7,CN1C(C(=O)Nc2ccc(F)c(Cl)c2)CC(C(=O)NC2CCN(c3ccnc(-c4ccccc4)c3)CC2)NS1(=O)=O (centres unmarked) [Compound 1050],< 50
8,CN1C(C(=O)Nc2ccc(F)c(Cl)c2)CC(C(=O)NC2CCN(c3ccnc(C4CC4)c3)CC2)NS1(=O)=O (centres unmarked) [Compound 1051],< 50
9,CN1C(C(=O)Nc2ccc(F)c(Cl)c2)CC(C(=O)NC2CCN(c3ccnc(-c4cn(C)cn4)c3)CC2)NS1(=O)=O (centres unmarked) [Compound 1052],< 50
10,CN1C(C(=O)Nc2ccc(F)c(Cl)c2)CC(C(=O)NC2CCN(c3ccnc(Cl)n3)CC2)NS1(=O)=O (centres unmarked) [Compound 1054],< 50
11,CN1C(C(=O)Nc2ccc(F)c(Cl)c2)CC(C(=O)N[C@@H]2CCN(c3ccnc(Cl)c3)C2)NS1(=O)=O (some centres unmarked) [Compound 1055-R],< 50
12,CN1C(C(=O)Nc2ccc(F)c(Cl)c2)CC(C(=O)N[C@H]2CCN(c3ccnc(Cl)c3)C2)NS1(=O)=O (some centres unmarked) [Compound 1055-S],< 50
13,CN1C(C(=O)Nc2ccc(F)c(Cl)c2)CC(C(=O)NC2CCN(c3ccnc(Cl)c3)C2)NS1(=O)=O (centres unmarked) [Compound 1055],< 50
14,Cc1nc(-c2ccc(F)cc2)sc1CNC(=O)C1CC(C(=O)Nc2ccc(F)c(Cl)c2)N(C)S(=O)(=O)N1 (centres unmarked) [Compound 1056],< 50
15,Cc1cn(-c2ccccc2)nc1CNC(=O)C1CC(C(=O)Nc2ccc(F)c(Cl)c2)N(C)S(=O)(=O)N1 (centres unmarked) [Compound 1057],< 50
16,CN1C(C(=O)Nc2ccc(F)c(Cl)c2)CC(C(=O)NCc2sc(Cl)nc2C(F)(F)F)NS1(=O)=O (centres unmarked) [Compound 1062],50 to 100
17,CN1C(C(=O)Nc2ccc(F)c(Cl)c2)CC(C(=O)NCc2sc(-c3ccccc3)nc2C(F)(F)F)NS1(=O)=O (centres unmarked) [Compound 1063],< 50
18,CN1C(C(=O)Nc2ccc(F)c(Cl)c2)CC(C(=O)NCc2sc(-c3ccccc3Cl)nc2C(F)(F)F)NS1(=O)=O (centres unmarked) [Compound 1064],< 50
19,Cc1nc(-c2ccccn2)sc1CNC(=O)C1CC(C(=O)Nc2ccc(F)c(Cl)c2)N(C)S(=O)(=O)N1 (centres unmarked) [Compound 1065],< 50
20,CN1C(C(=O)Nc2ccc(F)c(Cl)c2)CC(C(=O)NC(c2ccccc2)c2cnc(Cl)s2)NS1(=O)=O (centres unmarked) [Compound 1066],< 50
21,CN1C(C(=O)Nc2ccc(F)c(Cl)c2)CC(C(=O)NC(c2ccccc2)c2cnc(-c3ccccc3)s2)NS1(=O)=O (centres unmarked) [Compound 1067],< 50
22,CN1C(C(=O)Nc2ccc(F)c(Cl)c2)CC(C(=O)NC(c2ccccc2)c2cnc(-c3ccccc3Cl)s2)NS1(=O)=O (centres unmarked) [Compound 1068],50 to 100

row,SMILES,EC50 [nM]
1,Cc1nc(CNC(=O)C2CC(C(=O)Nc3ccc(F)c(Cl)c3)N(C)S(=O)(=O)N2)sc1Br (centres unmarked) [Compound 1069],< 50
2,Cc1nc(CNC(=O)C2CC(C(=O)Nc3ccc(F)c(Cl)c3)N(C)S(=O)(=O)N2)sc1-c1ccccc1 (centres unmarked) [Compound 1070],< 50
3,Cc1nc(CNC(=O)C2CC(C(=O)Nc3ccc(F)c(Cl)c3)N(C)S(=O)(=O)N2)sc1-c1ccccc1Cl (centres unmarked) [Compound 1071],< 50
4,CN1C(C(=O)Nc2ccc(F)c(Cl)c2)CC(C(=O)NCc2nn(-c3ccccc3)c3ccccc23)NS1(=O)=O (centres unmarked) [Compound 1072],< 50
5,CN1C(C(=O)Nc2ccc(F)c(Cl)c2)CC(C(=O)NCc2nn(-c3ccccc3Cl)c3ccccc23)NS1(=O)=O (centres unmarked) [Compound 1073],< 50
6,Cc1cccnc1N1CCC(NC(=O)C2CC(C(=O)Nc3ccc(F)c(Cl)c3)N(C)S(=O)(=O)N2)CC1 (centres unmarked) [Compound 1074],< 50
7,CN1C(C(=O)Nc2ccc(F)c(Cl)c2)CC(C(=O)NC2CCN(C(=O)OC(C)(C)C)C2)NS1(=O)=O (centres unmarked) [Compound 1081],100 to 10000
8,CN1C(C(=O)Nc2ccc(F)c(Cl)c2)CC(C(=O)NCc2sc(-c3ccccc3F)nc2C(F)(F)F)NS1(=O)=O (centres unmarked) [Compound 1082],< 50
9,Cc1nc(-c2ccc(F)cc2F)sc1CNC(=O)C1CC(C(=O)Nc2ccc(F)c(Cl)c2)N(C)S(=O)(=O)N1 (centres unmarked) [Compound 1083],< 50
10,CN1C(C(=O)Nc2ccc(F)c(Cl)c2)CC(C(=O)NC(c2ccccc2)c2cnc(-c3ccccc3F)s2)NS1(=O)=O (centres unmarked) [Compound 1084],< 50
11,Cc1nc(CNC(=O)C2CC(C(=O)Nc3ccc(F)c(Cl)c3)N(C)S(=O)(=O)N2)sc1-c1ccccc1F (centres unmarked) [Compound 1085],< 50
12,CN1C(C(=O)Nc2ccc(F)c(Cl)c2)CC(C(=O)NCc2nn(-c3ccccc3F)c3ccccc23)NS1(=O)=O (centres unmarked) [Compound 1086],< 50
13,Cc1nc(-c2ccc(OCCN3CCCCC3)cc2)sc1CNC(=O)C1CC(C(=O)Nc2ccc(F)c(Cl)c2)N(C)S(=O)(=O)N1 (centres unmarked) [Compound 1087],< 50
14,CN1C(C(=O)Nc2ccc(F)c(Cl)c2)CC(C(=O)NC2CCN(c3ccnc(C#N)c3)CC2)NS1(=O)=O (centres unmarked) [Compound 1089],< 50
15,Cc1sc(N2CCC(NC(=O)C3CC(C(=O)Nc4ccc(F)c(Cl)c4)N(C)S(=O)(=O)N3)CC2)nc1C(=O)N(C)C (centres unmarked) [Compound 1093],< 50
16,Cc1nc(Cl)sc1C(NC(=O)C1CC(C(=O)Nc2ccc(F)c(Cl)c2)N(C)S(=O)(=O)N1)c1ccccc1 (centres unmarked) [Compound 1098],< 50
17,Cc1nc(-c2ccccc2)sc1C(NC(=O)C1CC(C(=O)Nc2ccc(F)c(Cl)c2)N(C)S(=O)(=O)N1)c1ccccc1 (centres unmarked) [Compound 1099],50 to 100
18,Cc1nc(-c2ccccc2Cl)sc1C(NC(=O)C1CC(C(=O)Nc2ccc(F)c(Cl)c2)N(C)S(=O)(=O)N1)c1ccccc1 (centres unmarked) [Compound 1100],50 to 100
19,Cc1nc(-c2ccccc2F)sc1C(NC(=O)C1CC(C(=O)Nc2ccc(F)c(Cl)c2)N(C)S(=O)(=O)N1)c1ccccc1 (centres unmarked) [Compound 1101],50 to 100
20,Cc1cnn(-c2ccccc2)c1CNC(=O)C1CC(C(=O)Nc2ccc(F)c(Cl)c2)N(C)S(=O)(=O)N1 (centres unmarked) [Compound 1104],< 50
21,CN1C(C(=O)Nc2ccc(F)c(Cl)c2)CC(C(=O)Nc2cn(-c3ccccc3)cn2)NS1(=O)=O (centres unmarked) [Compound 1116],50 to 100
22,CN1C(C(=O)Nc2ccc(F)c(Cl)c2)CC(C(=O)NCc2cnc(N)s2)NS1(=O)=O (centres unmarked) [Compound 1132],100 to 10000

row,SMILES,EC50 [nM]
1,Cc1cn(-c2ccccc2)nc1CNC(=O)C1CC(C(=O)Nc2ccc(F)c(C#N)c2)N(C)S(=O)(=O)N1 (centres unmarked) [Compound 1134],< 50
2,Cc1cn(-c2ccccc2)nc1CNC(=O)C1CC(C(=O)Nc2ccnc(Cl)c2)N(C)S(=O)(=O)N1 (centres unmarked) [Compound 1135],< 50
3,Cc1nc(-c2ccccc2)sc1CNC(=O)C1CC(C(=O)Nc2ccc(F)c(C#N)c2)N(C)S(=O)(=O)N1 (centres unmarked) [Compound 1136],< 50
4,Cc1nc(-c2ccccc2)sc1CNC(=O)C1CC(C(=O)Nc2ccnc(Cl)c2)N(C)S(=O)(=O)N1 (centres unmarked) [Compound 1137],< 50
5,Cc1cn(-c2ccc(F)cc2)nc1CNC(=O)C1CC(C(=O)Nc2ccc(F)c(Cl)c2)N(C)S(=O)(=O)N1 (centres unmarked) [Compound 1141],< 50
6,Cc1cn(-c2ccccc2F)nc1CNC(=O)C1CC(C(=O)Nc2ccc(F)c(Cl)c2)N(C)S(=O)(=O)N1 (centres unmarked) [Compound 1142],< 50
7,CN1C(C(=O)Nc2ccc(F)c(Cl)c2)CC(C(=O)NCc2cc(-c3ccc(F)cc3)nn2C)NS1(=O)=O (centres unmarked) [Compound 1143],< 50
8,Cc1cn(-c2ccc(F)cc2F)nc1CNC(=O)C1CC(C(=O)Nc2ccc(F)c(Cl)c2)N(C)S(=O)(=O)N1 (centres unmarked) [Compound 1144],< 50
9,CN1C(C(=O)Nc2ccc(F)c(Cl)c2)CC(C(=O)NCc2cn(-c3ccccc3)cn2)NS1(=O)=O (centres unmarked) [Compound 1145],< 50
10,CN1C(C(=O)Nc2ccc(F)c(Cl)c2)CC(C(=O)NCc2cn(-c3ccccc3)nn2)NS1(=O)=O (centres unmarked) [Compound 1147],50 to 100
11,Cc1c(CNC(=O)C2CC(C(=O)Nc3ccc(F)c(Cl)c3)N(C)S(=O)(=O)N2)nnn1-c1ccccc1 (centres unmarked) [Compound 1148],100 to 10000
12,CN1C(C(=O)Nc2ccc(F)c(Cl)c2)CC(C(=O)NCc2cc(-c3ccccc3)on2)NS1(=O)=O (centres unmarked) [Compound 1149],< 50
13,Cc1c(CNC(=O)C2CC(C(=O)Nc3ccc(F)c(Cl)c3)N(C)S(=O)(=O)N2)noc1-c1ccccc1 (centres unmarked) [Compound 1150],< 50
14,CN1C(C(=O)Nc2ccc(F)c(Cl)c2)CC(C(=O)NCc2cc(-c3ccc(F)cc3)n(C)n2)NS1(=O)=O (centres unmarked) [Compound 1151],< 50
15,CN1C(C(=O)Nc2ccc(F)c(Cl)c2)CC(C(=O)NCc2ncc(-c3ccc(F)cc3)s2)NS1(=O)=O (centres unmarked) [Compound 1153],< 50
16,CN1C(C(=O)Nc2ccc(F)c(Cl)c2)CC(C(=O)NCc2cnc(-n3cccn3)s2)NS1(=O)=O (centres unmarked) [Compound 1157],50 to 100
17,CN1C(C(=O)Nc2ccc(F)c(Cl)c2)CC(C(=O)NCc2cnc(-n3ccnn3)s2)NS1(=O)=O (centres unmarked) [Compound 1158],< 50
18,CN1C(C(=O)Nc2ccc(F)c(Cl)c2)CC(C(=O)NCc2cnc(C3CCC(C)(C)C3)s2)NS1(=O)=O (centres unmarked) [Compound 1159],100 to 10000
19,CN1C(C(=O)Nc2ccc(F)c(Cl)c2)CC(C(=O)NCC2CCCCC2)NS1(=O)=O (centres unmarked) [Compound 1160],100 to 10000
20,CN1C(C(=O)Nc2ccc(F)c(Cl)c2)CC(C(=O)NCCC2CCCO2)NS1(=O)=O (centres unmarked) [Compound 1161],100 to 10000
21,CN1C(C(=O)Nc2ccc(F)c(Cl)c2)CC(C(=O)NCc2cnc(-c3ccccn3)s2)NS1(=O)=O (centres unmarked) [Compound 1162],< 50
